Measured values published in patent US20240109865A1, “INDAZOLE COMPOUNDS AS KINASE INHIBITORS” (TYRA BIOSCIENCES, INC., priority 2020, published 2024).

What was measured:
FGFR2 = FGFR2 (Homo sapiens (Human), UniProt P21802); assay: Kinase assay, binding constants (Kd), kinase-tagged T7 phage, qPCR
How it was run: (§1)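 Competition binding: T7 phage-tagged kinase + biotin-ligand beads + compound (11 pts, 3-fold, 0.9% DMSO). Elution 30 min RT with free ligand; qPCR quantitation. Kd via Hill fit, slope −1.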

FGFR3 = FGFR3 (Homo sapiens (Human), UniProt P22607); assay: as above
Sequence of FGFR3 (P22607 23-806): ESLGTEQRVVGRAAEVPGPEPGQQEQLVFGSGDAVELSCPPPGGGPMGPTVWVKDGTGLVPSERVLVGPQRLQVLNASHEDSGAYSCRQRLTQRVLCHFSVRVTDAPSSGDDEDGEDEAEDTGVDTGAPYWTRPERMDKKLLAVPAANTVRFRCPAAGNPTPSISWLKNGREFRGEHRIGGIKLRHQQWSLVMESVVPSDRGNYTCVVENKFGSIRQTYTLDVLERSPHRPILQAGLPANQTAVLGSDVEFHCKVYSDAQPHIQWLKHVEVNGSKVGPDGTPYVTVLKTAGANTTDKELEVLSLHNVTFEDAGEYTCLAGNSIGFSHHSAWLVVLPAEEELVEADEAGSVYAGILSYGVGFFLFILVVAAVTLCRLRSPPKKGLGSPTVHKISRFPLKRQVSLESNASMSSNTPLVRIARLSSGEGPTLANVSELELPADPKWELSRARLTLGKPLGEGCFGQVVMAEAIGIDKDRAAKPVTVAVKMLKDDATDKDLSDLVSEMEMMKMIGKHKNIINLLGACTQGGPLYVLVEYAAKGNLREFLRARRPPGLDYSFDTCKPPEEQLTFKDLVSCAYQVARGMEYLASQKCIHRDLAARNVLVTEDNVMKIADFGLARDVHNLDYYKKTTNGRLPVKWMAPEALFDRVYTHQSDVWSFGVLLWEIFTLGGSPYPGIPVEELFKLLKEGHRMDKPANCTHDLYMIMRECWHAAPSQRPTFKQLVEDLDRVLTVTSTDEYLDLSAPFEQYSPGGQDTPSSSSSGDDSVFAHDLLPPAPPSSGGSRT
How it was run: as §1

FGFR1 = FGFR1 (Homo sapiens (Human), UniProt P11362); assay: as above
Sequence of FGFR1 (P11362 22-822): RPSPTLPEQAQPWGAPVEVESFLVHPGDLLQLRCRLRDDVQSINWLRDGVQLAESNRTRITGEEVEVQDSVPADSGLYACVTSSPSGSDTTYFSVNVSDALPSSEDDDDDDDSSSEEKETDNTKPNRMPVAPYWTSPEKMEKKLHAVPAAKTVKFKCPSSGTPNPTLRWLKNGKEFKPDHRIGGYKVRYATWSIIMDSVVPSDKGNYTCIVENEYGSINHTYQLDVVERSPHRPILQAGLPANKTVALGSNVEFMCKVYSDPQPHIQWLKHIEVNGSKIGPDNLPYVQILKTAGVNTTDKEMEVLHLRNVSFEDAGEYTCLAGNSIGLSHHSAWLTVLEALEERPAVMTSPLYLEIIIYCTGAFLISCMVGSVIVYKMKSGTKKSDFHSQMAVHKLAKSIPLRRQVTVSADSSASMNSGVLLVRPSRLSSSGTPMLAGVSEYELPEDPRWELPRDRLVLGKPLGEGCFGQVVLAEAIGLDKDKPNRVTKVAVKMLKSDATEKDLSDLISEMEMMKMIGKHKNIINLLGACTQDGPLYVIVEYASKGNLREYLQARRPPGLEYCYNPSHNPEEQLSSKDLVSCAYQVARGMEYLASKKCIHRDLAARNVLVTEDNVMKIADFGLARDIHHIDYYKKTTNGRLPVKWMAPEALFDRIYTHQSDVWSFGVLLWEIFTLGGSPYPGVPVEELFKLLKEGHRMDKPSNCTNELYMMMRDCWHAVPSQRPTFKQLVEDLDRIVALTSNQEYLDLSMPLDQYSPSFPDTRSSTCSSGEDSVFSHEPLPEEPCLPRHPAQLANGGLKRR
How it was run: as §1

FGFR4 = FGFR4 (Homo sapiens (Human), UniProt P22455); assay: as above
Sequence of FGFR4 (P22455 22-802): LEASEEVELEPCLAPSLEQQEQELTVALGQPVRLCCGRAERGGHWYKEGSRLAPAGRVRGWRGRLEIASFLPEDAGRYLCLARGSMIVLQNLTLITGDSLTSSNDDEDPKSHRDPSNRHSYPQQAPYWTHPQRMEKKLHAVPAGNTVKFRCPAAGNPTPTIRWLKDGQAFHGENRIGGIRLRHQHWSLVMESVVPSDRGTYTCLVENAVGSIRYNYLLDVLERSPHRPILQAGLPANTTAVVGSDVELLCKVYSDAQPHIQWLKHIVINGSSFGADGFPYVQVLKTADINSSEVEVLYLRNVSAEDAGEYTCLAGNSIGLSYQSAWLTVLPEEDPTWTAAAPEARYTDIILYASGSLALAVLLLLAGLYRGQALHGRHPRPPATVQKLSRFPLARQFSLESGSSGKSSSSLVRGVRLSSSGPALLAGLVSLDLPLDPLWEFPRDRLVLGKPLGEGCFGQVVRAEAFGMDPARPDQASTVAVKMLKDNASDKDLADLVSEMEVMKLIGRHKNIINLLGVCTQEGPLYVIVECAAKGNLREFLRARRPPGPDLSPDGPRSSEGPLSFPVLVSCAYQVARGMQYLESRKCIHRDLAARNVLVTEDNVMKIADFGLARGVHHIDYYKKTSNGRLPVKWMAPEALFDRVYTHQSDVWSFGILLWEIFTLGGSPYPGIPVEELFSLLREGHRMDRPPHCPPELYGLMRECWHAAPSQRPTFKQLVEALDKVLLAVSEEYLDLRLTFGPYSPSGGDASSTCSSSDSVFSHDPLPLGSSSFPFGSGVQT
How it was run: as §1

FGFR3 (V555M) = FGFR3 (V555M) (Homo sapiens (Human), UniProt P22607, V555M); assay: as above; settings: V555M mutant
Sequence of FGFR3 (V555M) (P22607 23-806 V555M): as the sequence (P22607 23-806) above, with V533M counted along it
How it was run: as §1

[1] = system: RT112/84 cells (FGFR3-fusion); assay: RT112/84 cancer cell line cell viability assay (CellTiter-Glo 2.0); assay type: cell-based; settings: Homo sapiens, 72 hours, Cell Titer Glo 2.0
Description: Experimental Purpose: To detect the change of intracellular ATP by Cell Titer-Glo® and to evaluate the inhibitory effect of the compounds on cancer cell lines by determining the in vitro IC50 value of the compounds.
Cell Titer-Glo® 2.0 Luminescent cell viability assay reagent was purchased from Promega (Madison, WI). RT112/84 and KG-1 cell lines were purchased from American Type Culture Collection (Manassas, VA). UM-UC-14 cell line was purchased from Sigma (St. Louis, MO). RT112/84, UM-UC-14, and KG-1 cells were cultured in RPMI1640 media supplemented with 10% fetal bovine serum. Cultures were maintained at 37° C. in a humidified atmosphere of 5% C02 and 95% air.
Cell Viability Assay Procedure: Cells were plated in 96-well clear bottom/white plates (Corning #3903) at 10,000 cells/well in 100 μl of media, incubated overnight. The next day, test compound DMSO stock solutions were made at 10 mM and 2 μM final concentration. Compounds were then added to cells in a 9-dose, 10-fold dilution series starting at 30 μM with an HP 300e Digital Dispenser (each dose was applied in triplicate). DMSO was backfilled to each well up to 301 nL total volume of test compound+DMSO, and a total of 301 nL DMSO was added to a control/no test compound well in triplicate. The cells in cell culture plates were incubated with the compounds at 37° C. and 5% C02 for 72 hours. Then 50 μl of Cell Titer Glo 2.0 reagent was added to each well of the cell culture plates. The contents were covered from light and mixed on an orbital shaker at room temperature for 10 min. Luminescence was recorded by a Synergy H1 Microplate Reader (Biotek, Winooski, VT). Cells were assessed as a percentage of DMSO only treated control cells. Curves were plotted and IC50 values were calculated using the GraphPad Prism 8 program based on a sigmoidal dose-response equation (4 parameter).

[2] = molecular target: FGFR3-BAIAP2L1 Ba/F3 cells (Homo sapiens, UniProt P22607); assay: Ba/F3 cell viability assay (CellTiter-Glo 2.0), FGFR3-BAIAP2L1 Ba/F3; assay type: cell-based; settings: for Ba/F3 FGFR1/FGFR3 Selectivity: FGFR3 > FGFR1 selectivity ratio in Ba/F3 FGFR fusion cell based assays; for IC50: read-out: Ba/F3 Cells FGFR3 (IC50 nM), FGFR3-BAIAP2L1 Ba/F3 cells, 48 hours, Cell Titer Glo 2.0
Sequence of FGFR3-BAIAP2L1 Ba/F3 cells (P22607 23-806 limits assumed, change not shown): as the sequence (P22607 23-806) above
How it was run: (§2)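 IL3-independent Ba/F3 lines driven by FGFR1-BCR or FGFR3-BAIAP2L1 fusions, in RPMI1640/10% FBS. 9-dose 10-fold series from 30 μM, triplicate, 48 h at 37 °C; viability by CellTiter-Glo 2.0 ATP luminescence relative to DMSO control, IC50 from 4-parameter sigmoidal fit.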

FGFR1-BCR Ba/F3 cells = FGFR1-BCR Ba/F3 cells (Homo sapiens, UniProt P11362); assay: Ba/F3 cell viability assay (CellTiter-Glo 2.0), FGFR1-BCR Ba/F3; assay type: cell-based; settings: read-out: Ba/F3 Cells FGFR1 (IC50 nM), 48 hours, Cell Titer Glo 2.0
Sequence of FGFR1-BCR Ba/F3 cells (P11362 22-822 limits assumed, change not shown): as the sequence (P11362 22-822) above
How it was run: as §2

Sequence of FGFR2 (P21802 22-821): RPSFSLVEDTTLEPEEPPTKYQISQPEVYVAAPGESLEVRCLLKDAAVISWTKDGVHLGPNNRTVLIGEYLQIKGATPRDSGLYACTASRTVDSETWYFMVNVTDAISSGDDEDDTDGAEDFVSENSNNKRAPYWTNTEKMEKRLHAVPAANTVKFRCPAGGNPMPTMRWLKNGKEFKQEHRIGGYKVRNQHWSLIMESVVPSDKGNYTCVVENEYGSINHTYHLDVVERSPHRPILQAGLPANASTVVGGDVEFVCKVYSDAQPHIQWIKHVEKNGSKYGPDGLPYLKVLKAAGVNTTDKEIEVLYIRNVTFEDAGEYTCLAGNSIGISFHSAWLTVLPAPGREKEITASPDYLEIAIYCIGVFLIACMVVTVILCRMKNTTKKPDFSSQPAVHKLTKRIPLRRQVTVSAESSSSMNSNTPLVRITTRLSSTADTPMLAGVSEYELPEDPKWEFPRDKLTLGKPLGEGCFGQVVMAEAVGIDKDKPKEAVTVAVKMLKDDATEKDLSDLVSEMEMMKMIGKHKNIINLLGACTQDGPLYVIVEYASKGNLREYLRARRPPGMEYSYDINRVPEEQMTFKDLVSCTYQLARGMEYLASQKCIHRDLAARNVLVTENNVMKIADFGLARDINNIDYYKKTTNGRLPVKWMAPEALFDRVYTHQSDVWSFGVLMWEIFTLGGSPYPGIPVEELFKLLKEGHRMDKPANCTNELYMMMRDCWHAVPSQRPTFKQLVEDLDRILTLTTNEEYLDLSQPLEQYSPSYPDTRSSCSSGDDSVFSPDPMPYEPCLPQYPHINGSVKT

| Structure (SMILES) | Kd (FGFR2) [nM] | Kd (FGFR3) [nM] | Kd (FGFR1) [nM] | Kd (FGFR4) [nM] | Kd (FGFR3 (V555M)) [nM] | IC50 [1] [nM] | Ba/F3 FGFR1/FGFR3 Selectivity [2] | IC50 [2] [nM] | IC50 (FGFR1-BCR Ba/F3 cells) [nM] |
| --- | --- | --- | --- | --- | --- | --- | --- | --- | --- |
| C[C@@H](Oc1ccc2[nH]nc(-c3ccc(N4CC5(CCS(=O)(=O)CC5)C4)nc3)c2c1)c1c(Cl)cncc1Cl [Example 113, 2-[5-[5-[(1R)-1-(3,5-dichloro-4-pyridyl)ethoxy]-1H-indazol-3-yl]-2-pyridyl]-7λ^6-thia-2-azaspiro[3.5]nonane 7,7-dioxide] | 1 to 20 | 1 to 20 | 1 to 20 | 1 to 20 | 1 to 20 | 1 to 20 | 11 | 1 to 20 | 20 to 100 |
| C[C@@H](Oc1ccc2[nH]nc(-c3cnc(N4CCCN(S(C)(=O)=O)CC4)nc3)c2c1)c1c(Cl)cncc1Cl [Example 63, 5-[(1R)-1-(3,5-Dichloro-4-pyridyl)ethoxy]-3-[2-(4-methylsulfonyl-1,4-diazepan-1-yl)pyrimidin-5-yl]-1H-indazole] | 20 to 100 | 1 to 20 | 20 to 100 | 1 to 20 | 1 to 20 | – | 16 | 20 to 100 | > 300 |
| C[C@@H](Oc1ccc2[nH]nc(-c3ccc(N4CCN(S(C)(=O)=O)CC4=O)nc3)c2c1)c1c(Cl)cncc1Cl [Example 39, 1-[5-[5-[(1R)-1-(3,5-dichloro-4-pyridyl)ethoxy]-1H-indazol-3-yl]-2-pyridyl]-4-methylsulfonyl-piperazin-2-one] | 20 to 100 | 1 to 20 | 20 to 100 | 1 to 20 | 1 to 20 | – | 16 | 1 to 20 | 100 to 300 |
| C[C@@H](Oc1ccc2[nH]nc(-c3cnn(C4CCNCC4)c3)c2c1)c1cc(F)cc(F)c1 [Example 166, 5-[(1R)-1-(3,5-difluorophenyl)ethoxy]-3-[1-(4-piperidyl)pyrazol-4-yl]-1H-indazole] | 1 to 20 | 1 to 20 | 20 to 100 | > 300 | 1 to 20 | – | 6 | 100 to 300 | > 300 |
| C[C@@H](Oc1ccc2[nH]nc(-c3ccc(N4CC5(C4)CN(S(C)(=O)=O)C5)nc3)c2c1)c1c(Cl)cccc1Cl [Example 170, 5-[(1R)-1-(2,6-dichlorophenyl)ethoxy]-3-[6-(2-methylsulfonyl-2,6-diazaspiro[3.3]heptan-6-yl)-3-pyridyl]-1H-indazole] | 20 to 100 | 1 to 20 | 100 to 300 | 100 to 300 | 1 to 20 | – | 14 | 20 to 100 | > 300 |
| C[C@H](Oc1ccc2[nH]nc(-c3ccc(N4CC5(C4)CN(S(C)(=O)=O)C5)nc3)c2c1)c1c(Cl)cncc1Cl [Example 160, 5-[(1S)-1-(3,5-dichloro-4-pyridyl)ethoxy]-3-[6-(2-methylsulfonyl-2,6-diazaspiro[3.3]heptan-6-yl)-3-pyridyl]-1H-indazole] | 100 to 300 | 20 to 100 | > 300 | 100 to 300 | 1 to 20 | – | 17 | 100 to 300 | > 300 |
| C[C@@H](Oc1ccc2[nH]nc(-c3cnn(C4CCN(C5CCC5)CC4)c3)c2c1)c1c(Cl)cncc1Cl [Example 90, 3-[1-(1-cyclobutyl-4-piperidyl)pyrazol-4-yl]-5-[(1R)-1-(3,5-dichloro-4-pyridyl)ethoxy]-1H-indazole] | 1 to 20 | 1 to 20 | 1 to 20 | 20 to 100 | 1 to 20 | – | 10 | 1 to 20 | 20 to 100 |
| C[C@@H](Oc1ccc2[nH]nc(-c3ccc(C4CCN(C(=O)N(C)C)CC4)nc3)c2c1)c1c(Cl)cncc1Cl [Example 71, 4-[5-[5-[(1R)-1-(3,5-dichloro-4-pyridyl)ethoxy]-1H-indazol-3-yl]-2-pyridyl]-N,N-dimethyl-piperidine-1-carboxamide] | 1 to 20 | 1 to 20 | 1 to 20 | 1 to 20 | 1 to 20 | – | 15 | 1 to 20 | 20 to 100 |
| COC(=O)N1CCCC2(C1)CN(c1ccc(-c3n[nH]c4ccc(O[C@H](C)c5c(Cl)cncc5Cl)cc34)cn1)C2 [Example 165, methyl 2-[5-[5-[(1R)-1-(3,5-dichloro-4-pyridyl)ethoxy]-1H-indazol-3-yl]-2-pyridyl]-2,8-diazaspiro[3.5]nonane-8-carboxylate] | 1 to 20 | 1 to 20 | 20 to 100 | 1 to 20 | 1 to 20 | – | 16 | 1 to 20 | 100 to 300 |
| CC(Oc1ccc2[nH]nc(-c3cnn(C4CCN(C5COC5)CC4)c3)c2c1)c1c(Cl)ccnc1Cl (centres unmarked) [Example 108, 5-[1-(2,4-dichloro-3-pyridyl)ethoxy]-3-[1-[1-(oxetan-3-yl)-4-piperidyl]pyrazol-4-yl]-1H-indazole] | 1 to 20 | 1 to 20 | 20 to 100 | 20 to 100 | 1 to 20 | – | 14 | 1 to 20 | 100 to 300 |
| COC(=O)N1CC2(C1)CN(c1ncc(-c3n[nH]c4ccc(O[C@H](C)c5c(C)cnnc5C)cc34)cn1)C2 [Example 143, methyl 6-[5-[5-[(1R)-1-(3,5-dimethylpyridazin-4-yl)ethoxy]-1H-indazol-3-yl]pyrimidin-2-yl]-2,6-diazaspiro[3.3]heptane-2-carboxylate] | 20 to 100 | 1 to 20 | 100 to 300 | 1 to 20 | 1 to 20 | – | 14 | 100 to 300 | > 300 |
| C[C@@H](Oc1ccc2[nH]nc(-c3ccc(N4CC5(CCN(S(C)(=O)=O)C5)C4)nc3)c2c1)c1c(Cl)cncc1Cl [Example 163, 5-[(1R)-1-(3,5-dichloro-4-pyridyl)ethoxy]-3-[6-(7-methylsulfonyl-2,7-diazaspiro[3.4]octan-2-yl)-3-pyridyl]-1H-indazole] | 1 to 20 | 1 to 20 | 1 to 20 | 1 to 20 | 1 to 20 | – | 17 | 1 to 20 | 20 to 100 |
| Cc1cnnc(C)c1[C@@H](C)Oc1ccc2[nH]nc(-c3ccc(N4CC5(C4)CN(S(C)(=O)=O)C5)nc3)c2c1 [Example 148, 5-[(1R)-1-(3,5-dimethylpyridazin-4-yl)ethoxy]-3-[6-(2-methylsulfonyl-2,6-diazaspiro[3.3]heptan-6-yl)-3-pyridyl]-1H-indazole] | 1 to 20 | 1 to 20 | 1 to 20 | 1 to 20 | 1 to 20 | – | 16 | 20 to 100 | > 300 |
| COC(=O)N1CCC2(CC1)CN(c1ncc(-c3n[nH]c4ccc(O[C@H](C)c5c(Cl)cncc5Cl)cc34)cn1)C2 [Example 136, methyl 2-[5-[5-[(1R)-1-(3,5-dichloro-4-pyridyl)ethoxy]-1H-indazol-3-yl]pyrimidin-2-yl]-2,7-diazaspiro[3.5]nonane-7-carboxylate] | 1 to 20 | 1 to 20 | 20 to 100 | 1 to 20 | 1 to 20 | – | 6 | 20 to 100 | > 300 |
